In assay [1] the test system is human dermal fibroblast neonatal (HDF-N). Briefly: Cell growth of fibroblast primary culture, neutral red (NR) assay. The class given is cell-based. To be noted: fibroblasts incubated 24 hours. The text has this:
It was identified through the current experiment that the folyl EFS promotes cell growth and collagen biosynthesis. A cell line used in the current experiment was a primary culture of a fibroblast (human dermal fibroblast neonatal; (HDF-N; Gibco, Cooper, M. L. et al, Biomaterials 12:243, 1991), and a culture media used was a fibroblast neonatal growth medium (FGM, KDR Co.). […] Shao-Zeng Z. et al., Cell Biology and Toxicology, 6:2, 1990) (see FIG. 7).

Assay [2] deals with human dermal fibroblast neonatal. Briefly: Collagen biosynthesis promotion, human collagen type-1 ELISA. The class given is cell-based. As for the experimental part:
The folyl EFS and the human dermal fibroblast neonatal were incubated for 3 days, and the supernatant was isolated and collagen was quantified using a human collagen type-1 ELISA kit (Cosmo Bio Co.). A sample used in the current experiment was a 1% solution containing Composition 2 used in Preparation Example 2, and 4% of 1,3-butyleneglycol was added to the sample and preserved. Also, to compare with the effect of the folyl EFS, a folic acid solution in which the concentration of the folic acid was the same as that in the folyl EFS was prepared. In addition, 10 ng/ml of transforming growth factor-beta (TGF-β; Sigma), which is known as a promotion factor for collagen biosynthesis, was compared with the folyl EFS.
The collagen biosynthesis promotion effect of the folyl EFS is shown in the bar chart of FIG. 8. A folyl EFS produced as a cosmetic source material was a 1% liquid product. In FIG. 8, the concentration (%) of the x-axis denotes a ratio of the volume of the folyl EFS to the volume of the entire culture solution (v/v, %). The results are represented as the ratio of the value of collagen of each group with respect to the average value of collagen in a group not treated with anything when the average value of collagen in the group not treated with anything was set at 100%. […]
Background: ELISA stands for enzyme-linked immunosorbent assay.

The subject of assay [3] is mast cells (ATCC TIB-64, P815). Briefly: Quantifying histamine secreted by C48/80-stimulated mast cells (ELISA). The class given is cell-based. As for the experimental part:
This experiment was performed to identify how much the folyl EFS reduces the amount of histamine secreted when mast cells are treated with a stimulant. […] FIG. 2 is a bar chart showing the results of the experiment. […] As described above, it can be seen that the folyl EFS has an excellent anti-histamine (anti-allergic) effect.

The subject of the next assay is mice (BALB/C, male). Briefly: Anti-allergic (anti-anaphylaxis) test, C48/80 intraperitoneally injected. It is filed as in vivo.

Method for mice (BALB/C, male): C48/80 is a material that stimulates immune organs and induces acute anaphylaxis within 30 minutes when intraperperitoneally injected. In the current experiment, the number of test animals which died within a predetermined time period (24 hours) after the intraperperitoneal injection of the C48/80 was counted. In the current experiment, 10 mice (BALB/C, male) were used per group, and each group was tested for three times and the average value of the three experimental results was represented as a death ratio (%).

On to `Nc1nc2ncc(CNc3ccc(C(=O)N[C@@H](CCC(=O)O)C(=O)O)cc3)nc2c(=O)[nH]1` [folic acid], for which the “cell growth rate when concentration gradually increased” value in assay [1] is given as “the cell growth rate was not increased accordingly”. Besides, the “collagen biosynthesis promotion effect” value in assay [2] (folic acid solution at same folic acid concentration as in folyl EFS) is given as “did not occur within an error range”.
`O=C(O)c1cc(=O)c2c(OCC(O)COc3cccc4oc(C(=O)O)cc(=O)c34)cccc2o1` [sodium cromolyn]: the “ED50 value (histamine secretion inhibition)” value in assay [3] (C48/80-stimulated mast cells, ELISA) is given as 0.5%. Also, the “histamine secretion inhibition rate” value in assay [3] (about 0.5% of the sodium cromolyn) was 50%. Besides, the “inhibition of development of anaphylaxis” value in the assay with mice (BALB/C, male) (1% sodium cromolyn) is “up to 80%”. Further, the “inhibition of sequela of anaphylaxis” value in the assay on mice (BALB/C, male) (result in words) was “did not inhibit sequela of anaphylaxis”.
As for TGF-β, the “maximum promotion rate of collagen biosynthesis” value in assay [2] (at 0.63% (v/v, %), 3 days, relative to untreated group set at 100%) turned out to be 22%.
